# Measured values taken from patent publication US9040523B2, “Antifungal 5,6-dihydro-4H-pyrrolo[1,2-α][1,4]-benzodiazepines and 6H-pyrrolo[1,2-α][1,4]benzodiazepines substituted with benzene derivatives” (JANSSEN PHARMACEUTICA NV, priority 2010, dated 2015).
# Structures can show the parent of a compound that is named as a salt.
# How the values were obtained:
# Format in all cases: cell-based
# [1] = tested on: Sporothrix schenkii B62482; experiment: Antifungal activity in vitro (resazurin susceptibility screen), Inf. A; details: 27 °C, 4 days, resa time 24 hours, highest in-test concentration 64 μM; for Inf. A pIC50: Sporothrix schenkii B62482; for IC50: Sporothrix, B62482, Sporothrix schenkii B62482, read-out: Inf. A pIC50 (converted)
# Method: (§1) The standard susceptibility screen was performed in 96-well plates (U-bottom, Greiner Bio-One). […] These serial dilutions (10 n1) were then spotted onto test-plates that could be stored in the dark at 4° C. for a maximum period of 2 weeks. […] The different fungal species/isolates (Table 3a) were cryopreserved and 1/1000 diluted in medium just prior to use. A standard inoculum of 200 μl containing 10^3 colony-forming unit (cfu) was then added to each well. A positive control (100% growth=fungal culture without antifungal) and a negative control (0% growth ═RPMI-MOPS medium) were included on each plate. […] [table]
# [2] = tested on: Aspergillus fumigatus B42928; experiment: Antifungal activity in vitro (resazurin susceptibility screen), Inf. E; details: Aspergillus fumigatus B42928, 27 °C, 48 hours, resa time 17 hours; for IC50: read-out: Inf. E pIC50 (converted)
# Method: as §1
# [3] = tested on: Candida parapsilosis B66126; experiment: Antifungal activity in vitro (resazurin susceptibility screen), Inf. D; details: Candida parapsilosis B66126, 37 °C, 24 hours, resa time 4 hours; for IC50: Lodderomyces parapsilosis, read-out: Inf. D pIC50 (converted)
# Method: (§2) The standard susceptibility screen was performed in 96-well plates (U-bottom, Greiner Bio-One). […] These serial dilutions (10 n1) were then spotted onto test-plates that could be stored in the dark at 4° C. for a maximum period of 2 weeks. […] A standard inoculum of 200 μl containing 10^3 colony-forming unit (cfu) was then added to each well. A positive control (100% growth=fungal culture without antifungal) and a negative control (0% growth ═RPMI-MOPS medium) were included on each plate.
# [4] = tested on: Trichophyton rubrum B68183; experiment: Antifungal activity in vitro (resazurin susceptibility screen), Inf. C; details: Trichophyton rubrum B68183, 27 °C, 7 days, resa time 24 hours; for IC50: read-out: Inf. C pIC50 (converted)
# Method: as §1
# [5] = tested on: Cryptococcus neoformans B66663; experiment: Antifungal activity in vitro (resazurin susceptibility screen), Inf. F; details: 37 °C, 24 hours, resa time 4 hours; for Inf. F pIC50: Cryptococcus neoformans B66663; for IC50: Cryptococcus neoformans, B66663, Cryptococcus neoformans B66663, read-out: Inf. F pIC50 (converted)
# Method: as §1
# Microsporum canis B68128 = experiment: Antifungal activity in vitro (resazurin susceptibility screen), Inf. B; details: 27 °C, 9 days, resa time 24 hours; for Inf. B pIC50: Microsporum canis B68128; for IC50: Microsporum canis, B68128, Microsporum canis B68128, read-out: Inf. B pIC50 (converted)
# Method: as §2
# [6] = tested on: Trichophyton mentagrophytes B70554; experiment: Antifungal activity in vitro (resazurin susceptibility screen), Inf. G; details: 27 °C, 7 days, resa time 24 hours; for Inf. G pIC50: Trichophyton mentagrophytes B70554; for IC50: Trichophyton mentagrophytes, B70554, Trichophyton mentagrophytes B70554, read-out: Inf. G pIC50 (converted)
# Method: as §2
SMILES,Inf. A pIC50 [1],Inf. E pIC50 [2],Inf. D pIC50 [3],Inf. C pIC50 [4],Inf. F pIC50 [5],Inf. B pIC50 (Microsporum canis B68128),Inf. G pIC50 [6],IC50 [1] [µM],IC50 [2] [µM],IC50 [3] [µM],IC50 [4] [µM],IC50 [5] [µM],IC50 (Microsporum canis B68128) [µM],IC50 [6] [µM]
"CC(O)c1ccc(C2NCc3c(ccc(Cl)c3Cl)-n3cccc32)cc1.Cl (stereo not drawn) [Compound 2, 4-(7,8-dichloro-5,6-dihydro-4H-pyrrolo[1,2-a][1,4]benzodiazepin-4-yl)-alpha-methyl-benzenemethanol .HCl]",<4.2,<4.2,<4.2,<4.2,<4.2,4.7,<4.2,–,–,–,–,–,–,–
"CC(O)c1ccc(C2NCc3cc(Cl)cc(Cl)c3-n3cccc32)cc1.Cl (stereo not drawn) [Compound 3, 4-(8,10-dichloro-5,6-dihydro-4H-pyrrolo[1,2-a][1,4]benzodiazepin-4-yl)-alpha-methyl-benzenemethanol .HCl]",<4.2,<4.2,<4.2,6,4.7,5.0,4.4,–,–,–,–,–,–,–
"CC(=O)c1cccc(C2NCc3c(Cl)cccc3-n3cccc32)c1 (stereo not shown) [Compound 4, 1-[3-(7-chloro-5,6-dihydro-4H-pyrrolo[1,2-a][1,4]benzodiazepin-4-yl)phenyl]-ethanone]",–,–,–,–,–,–,–,> 63.1,> 63.1,> 63.1,5.01,> 63.1,10,–
"Br.CC(=O)c1ccc(C2NCc3c(Cl)cccc3-n3cccc32)cc1 (stereo not shown) [Compound 6, 1-[4-(7-chloro-5,6-dihydro-4H-pyrrolo[1,2-a][1,4]benzodiazepin-4-yl)phenyl]-ethanone .HBr]",4.7,4.5,<4.2,6.4,<4.2,6.2,–,–,–,–,–,–,–,–
"CC(=O)c1cc(C2NCc3c(Cl)cccc3-n3cccc32)ccc1F.Cl (stereo not shown) [Compound 7, 1-[5-(7-chloro-5,6-dihydro-4H-pyrrolo[1,2-a][1,4]benzodiazepin-4-yl)-2-fluorophenyl]-ethanone .HCl]",<4.2,<4.2,<4.2,6.0,<4.2,5.1,5.2,–,–,–,–,–,–,–
"CC(=O)c1ccc(C2NCc3c(ccc(Cl)c3Cl)-n3cccc32)cc1.Cl (stereo not shown) [Compound 9, 1-[4-(7,8-dichloro-5,6-dihydro-4H-pyrrolo[1,2-a][1,4]benzodiazepin-4-yl)phenyl]-ethanone .HCl]",5.0,<4.2,<4.2,5.7,4.5,5.6,4.5,–,–,–,–,–,–,–
"CC(=O)c1cccc(C2NCc3c(Cl)cc(Cl)cc3-n3cccc32)c1.Cl (stereo not shown) [Compound 10, 1-[3-(7,9-dichloro-5,6-dihydro-4H-pyrrolo[1,2-a][1,4]benzodiazepin-4-yl)phenyl]-ethanone .HCl]",<4.2,<4.2,<4.2,5.7,<4.2,5.3,5.2,–,–,–,–,–,–,–
"CC(=O)c1ccc(C2NCc3c(Cl)cc(Cl)cc3-n3cccc32)cc1.Cl (stereo not shown) [Compound 12, 1-[4-(7,9-dichloro-5,6-dihydro-4H-pyrrolo[1,2-a][1,4]benzodiazepin-4-yl)phenyl]-ethanone .HCl]",<4.2,<4.2,<4.2,5.7,<4.2,4.9,5.1,–,–,–,–,–,–,–
CS(=O)(=O)c1cccc(C2=NCc3c(Cl)cccc3-n3cccc32)c1 [Compound 27],<4.2,<4.2,<4.2,5.1,4.2,5.2,5.1,–,–,–,–,–,–,–
"CS(=O)(=O)c1ccc(C2=NCc3c(Cl)cc(Cl)cc3-n3cccc32)cc1 [Compound 30, 7,9-dichloro-4-[4-(methylsulfonyl)phenyl]-6H-pyrrolo[1,2-a][1,4]benzodiazepine]",–,–,–,–,–,–,–,50.1,63.1,> 63.1,2,15.8,3.98,6.31
"OCCc1ccc(C2NCc3c(Cl)cc(Cl)cc3-n3cccc32)cc1 (stereo not shown) [Compound 34, 4-(7,9-dichloro-5,6-dihydro-4H-pyrrolo[1,2-a][1,4]benzodiazepin-4-yl)-benzeneethanol .HCl]",–,–,–,–,–,–,–,> 63.1,> 63.1,> 63.1,12.6,31.6,2,20
"Cl.OCCc1ccc(C2NCc3c(Cl)cccc3-n3cccc32)cc1 (stereo not shown) [Compound 35, 4-(7-chloro-5,6-dihydro-4H-pyrrolo[1,2-a][1,4]benzodiazepin-4-yl)-benzeneethanol .HCl]",<4.2,<4.2,<4.2,5.1,4.3,4.4,4.9,–,–,–,–,–,–,–
"Cl.OCCc1ccc(C2NCc3cc(Cl)cc(Cl)c3-n3cccc32)cc1 (stereo not shown) [Compound 36, 4-(8,10-dichloro-5,6-dihydro-4H-pyrrolo[1,2-a][1,4]benzodiazepin-4-yl)-benzeneethanol .HCl]",<4.2,<4.2,<4.2,4.5,4.6,4.3,4.7,–,–,–,–,–,–,–
"Cl.OCCc1ccc(C2NCc3c(ccc(Cl)c3Cl)-n3cccc32)cc1 (stereo not shown) [Compound 37, 4-(7,8-dichloro-5,6-dihydro-4H-pyrrolo[1,2-a][1,4]benzodiazepin-4-yl)-benzeneethanol .HCl]",4.8,4.4,<4.2,4.5,5.0,<4.2,4.4,–,–,–,–,–,–,–
"Cl.OCCc1ccc(C2NCc3c(Cl)ccc(Cl)c3-n3cccc32)cc1 (stereo not shown) [Compound 38, 4-(7,10-dichloro-5,6-dihydro-4H-pyrrolo[1,2-a][1,4]benzodiazepin-4-yl)-benzeneethanol .HCl]",<4.2,<4.2,<4.2,5.1,4.7,5.7,4.7,–,–,–,–,–,–,–
